A value given as a limit tells only on which side of the number the result lay.

The values below come from patent US9156816B2 (priority 2010, dated 2015).

For experiment [1], the system named is tomato late blight pathogen (Phytophthora infestans). Nature of the experiment: whole plant or invertebrate. It is filed as in vivo. To be noted: 96 h, read-out: control value.
Experiment [2] has as its system Pythium ultimum. Nature of the experiment: Cucumber damping-off (PU) control test. It is filed as in vivo. To be noted: Globisporangium ultimum, 168 h, soil irrigated with 30 ml emulsion at active ingredient concentration of 100 ppm, ratio of healthy seedlings on day 7 after planting vs untreated group. As for the experimental part: 40 ml of sterile soil were placed in plastic cups followed by leveling the surface of the soil. The soil was then irrigated with 30 ml of the aforementioned emulsion of Preparation Example 2 at an active ingredient concentration of 100 ppm. Following irrigation, cucumbers (variety: Sagami Hanjiro) were planted in the soil and covered with 20 ml of contaminated soil (containing Pythium ultimum) from above. The cups were then placed in plastic bags and allowed to stand undisturbed for 3 days in a constant temperature room at 25° C. (dark location […]). Next, the plants were removed from the bags and held in a constant temperature room at 25° C. using a light-dark cycle of 12 hours. On day 7 after planting, the ratios of healthy seedlings were compared between an untreated group and treated group to calculate control effects (control values).

In experiment [3] the test system is Pythium aphanidermatum. Nature of the experiment: Antimicrobial test (mycelia growth inhibition). It is filed as cell-based. To be noted: compound concentration of 1 ppm, PSY medium, 25° C., days 3 to 7 of culturing, read-out: mycelia growth inhibition rate. The method, then: The compound according to the present invention was dissolved in dimethylsulfoxide and diluted to double the prescribed concentration in a 96-well microplate using PSY medium to obtain a drug solution. On the other hand, a diluted dimethylsulfoxide solution was prepared using PSY medium for use as an untreated group.
A suspension of liquid-cultured test microorganisms (Pythium aphanidermatum) was mixed with an equal volume of the drug solution and cultured in a dark location at 25° C. Mycelia growth was observed on days 3 to 7 of culturing to determine mycelia growth inhibition rates.

Take `CCCOC(C)(OCCC)C(=O)Nc1cccc(CO/N=C(/c2ccccc2)c2nnnn2C)n1` [a-29]: the pest or weed control at 100 µg/mL in experiment [1] was ≥ 70%. Moreover, the pest or weed control at 100 ppm in experiment [2] was ≥ 50%. The inhibition (commonly how much of the control response was suppressed) at 1 ppm in experiment [3] was ≥ 50%.
`CCOC(C)(OCC(F)(F)F)C(=O)Nc1cccc(CO/N=C(/c2ccccc2)c2nnnn2C)n1` (stereo not drawn) [a-30]: in experiment [1], the pest or weed control at 100 µg/mL was ≥ 70%. Further, the pest or weed control at 100 ppm in experiment [2] was ≥ 50%. In experiment [3], the inhibition at 1 ppm is ≥ 50%.
On to `CCOC(C)(OCCOC)C(=O)Nc1cccc(CO/N=C(/c2ccccc2)c2nnnn2C)n1` (stereo not drawn) [a-31], for which the pest or weed control at 100 µg/mL in experiment [1] is ≥ 70%. The pest or weed control at 100 ppm in experiment [2] was ≥ 50%. Further, in experiment [3], the inhibition at 1 ppm is ≥ 50%.
As to `Cn1nnnc1/C(=N\OCc1cccc(NC(=O)OCCC2OCC(C)(C)CO2)n1)c1ccccc1` [c-1], in experiment [1], the pest or weed control at 100 µg/mL is ≥ 70%. For the same molecule, in experiment [2], the pest or weed control at 100 ppm was ≥ 50%. Further, the inhibition at 1 ppm in experiment [3] is ≥ 50%.
As for `Cn1nnnc1/C(=N\OCc1cccc(NC(=O)OC2CCC3(CC2)OCCO3)n1)c1ccccc1` [c-5], in experiment [1], the pest or weed control at 100 µg/mL is ≥ 70%. Besides, the pest or weed control at 100 ppm in experiment [2] is ≥ 50%. For the same molecule, the inhibition at 1 ppm in experiment [3] was ≥ 50%.
For `COC(CC(C)OC(=O)Nc1cccc(CO/N=C(/c2ccccc2)c2nnnn2C)n1)OC` (stereo not drawn) [c-6], the pest or weed control at 100 µg/mL in experiment [1] is ≥ 70%. In experiment [2], the pest or weed control at 100 ppm was ≥ 50%. In addition, the inhibition at 1 ppm in experiment [3] was ≥ 50%.
With `COC(COC(=O)Nc1cccc(CO/N=C(/c2ccccc2)c2nnnn2C)n1)OC` [c-7, (Z)-(1-methyl-1H-tetrazol-5-yl)phenylmethanone-o-[2-(2,2-dimethoxyethoxycarbonylamino)pyridin-6-ylmethyl]oxime], in experiment [1], the pest or weed control at 100 µg/mL is ≥ 70%. Further, the pest or weed control at 100 ppm in experiment [2] was ≥ 50%. The inhibition at 1 ppm in experiment [3] was ≥ 50%.
`CCOC(CCOC(=O)Nc1cccc(CO/N=C(/c2ccccc2)c2nnnn2C)n1)OCC` [c-8]: the pest or weed control at 100 µg/mL in experiment [1] was ≥ 70%. Moreover, in experiment [2], the pest or weed control at 100 ppm was ≥ 50%. Besides, the inhibition at 1 ppm in experiment [3] is ≥ 50%.
Consider `COC(CC(C)(C)OC(=O)Nc1cccc(CO/N=C(/c2ccccc2)c2nnnn2C)n1)OC` [c-9], for which the pest or weed control at 100 µg/mL in experiment [1] is ≥ 70%. In experiment [2], the pest or weed control at 100 ppm is ≥ 50%. The inhibition at 1 ppm in experiment [3] was ≥ 50%.
Take `CCOC(COC(=O)Nc1cccc(CO/N=C(/c2ccccc2)c2nnnn2C)n1)OCC` [c-10]: the pest or weed control at 100 µg/mL in experiment [1] was ≥ 70%. Moreover, in experiment [2], the pest or weed control at 100 ppm was ≥ 50%. The inhibition at 1 ppm in experiment [3] was ≥ 50%.
With `COCCCC(C)(C)OC(=O)Nc1cccc(CO/N=C(/c2ccccc2)c2nnnn2C)n1` [d-8], in experiment [1], the pest or weed control at 100 µg/mL is ≥ 70%. For the same molecule, the pest or weed control at 100 ppm in experiment [2] is ≥ 50%. The inhibition at 1 ppm in experiment [3] was ≥ 50%.
Take `CCOCCC(C)OC(=O)Nc1cccc(CO/N=C(/c2ccccc2)c2nnnn2C)n1` (stereo not drawn) [d-13]: in experiment [1], the pest or weed control at 100 µg/mL is ≥ 70%. Further, the pest or weed control at 100 ppm in experiment [2] was ≥ 50%. In experiment [3], the inhibition at 1 ppm is ≥ 50%.
Take `COCCC(C)OC(=O)Nc1cccc(CO/N=C(/c2ccccc2)c2nnnn2C)n1` (stereo not drawn) [d-14]: the pest or weed control at 100 µg/mL in experiment [1] is ≥ 70%. In experiment [2], the pest or weed control at 100 ppm was ≥ 50%. Further, the inhibition at 1 ppm in experiment [3] is ≥ 50%.
`CCOCCCOC(=O)Nc1cccc(CO/N=C(/c2ccccc2)c2nnnn2C)n1` [d-15]: in experiment [1], the pest or weed control at 100 µg/mL was ≥ 70%. Also, the pest or weed control at 100 ppm in experiment [2] was ≥ 50%. Further, in experiment [3], the inhibition at 1 ppm was ≥ 50%.
`CCOCC(COC(=O)Nc1cccc(CO/N=C(/c2ccccc2)c2nnnn2C)n1)OCC` (stereo not drawn) [d-17]: the pest or weed control at 100 µg/mL in experiment [1] is ≥ 70%. Further, in experiment [2], the pest or weed control at 100 ppm was ≥ 50%. In addition, the inhibition at 1 ppm in experiment [3] was ≥ 50%.
For `CCOCC(CCOC(=O)Nc1cccc(CO/N=C(/c2ccccc2)c2nnnn2C)n1)OCC` (stereo not drawn) [d-18], in experiment [1], the pest or weed control at 100 µg/mL was ≥ 70%. Also, the pest or weed control at 100 ppm in experiment [2] is ≥ 50%. The inhibition at 1 ppm in experiment [3] was ≥ 50%.
